According to ChEMBL document CHEMBL4808208, “Hepatoselective Dihydroquinolizinone Bis-acids for HBsAg mRNA Degradation” (ACS Med Chem Lett, 2021):
pEC50, pIC50: −log10 of the molar value. Several values for one entry are separate records, joined by “and”; a condition that tells them apart may be missing. Identical values can stand only once. Activity calls are given as the source filed them. The rule behind the calls is not given here.

Experiments:
Hepatitis B virus [1] = test: Antiviral activity against Hepatitis B virus infected in human HepG2.2.15 cells assessed as reduction in HBsAg level measured after 4 days by AlphaLisa assay; assay type: functional, organism-based; settings: HepG2.2.15, 96 h
[2] = 1-Octanol/saturated PBS buffer distribution coefficient, logD of the compound incubated for 1 hr by LC-MS/MS analysis; assay type: physicochemical
Hepatitis B virus [3] = test: Antiviral activity against Hepatitis B virus infected in human HepG2.2.15 cells assessed as reduction in HBV pregenomic mRNA level at 1 uM measured after 5 days by Northern blot analysis; assay type: functional, organism-based; settings: time 5.0 day
[4] = Apparent permeability of the compound across apical to basolateral side in human Caco-2 cells at 10 uM incubated for 1 hr; assay type: ADME, cell-based
Cytochrome P450 1A2 = target: T1, Cytochrome P450 1A2 (Homo sapiens, UniProt P05177); test: Inhibition of CYP1A2 in human liver microsomes using phenacetin as substrate preincubated for 5 mins followed by NADPH addition by LC-MS/MS analysis; assay type: ADME
T1 sequence (P05177 whole entry): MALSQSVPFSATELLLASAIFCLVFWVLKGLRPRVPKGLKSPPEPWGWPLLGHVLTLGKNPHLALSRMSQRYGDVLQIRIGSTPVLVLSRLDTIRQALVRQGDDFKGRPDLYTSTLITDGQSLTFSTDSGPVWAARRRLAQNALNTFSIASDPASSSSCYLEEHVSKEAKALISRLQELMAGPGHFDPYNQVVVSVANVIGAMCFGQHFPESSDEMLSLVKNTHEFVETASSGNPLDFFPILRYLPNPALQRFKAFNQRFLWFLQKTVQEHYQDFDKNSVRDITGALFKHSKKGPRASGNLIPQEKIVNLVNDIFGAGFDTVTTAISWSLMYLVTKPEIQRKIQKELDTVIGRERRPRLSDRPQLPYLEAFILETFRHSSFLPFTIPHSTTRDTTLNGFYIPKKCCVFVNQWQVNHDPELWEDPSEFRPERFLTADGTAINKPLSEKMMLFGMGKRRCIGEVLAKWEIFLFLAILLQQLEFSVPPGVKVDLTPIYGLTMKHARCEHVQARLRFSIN

Cytochrome P450 2A6 = target: T2, Cytochrome P450 2A6 (Homo sapiens, UniProt P11509); test: Inhibition of CYP2A6 in human liver microsomes using coumarin as substrate preincubated for 5 mins followed by NADPH addition by LC-MS/MS analysis; assay type: ADME
T2 sequence (P11509 whole entry): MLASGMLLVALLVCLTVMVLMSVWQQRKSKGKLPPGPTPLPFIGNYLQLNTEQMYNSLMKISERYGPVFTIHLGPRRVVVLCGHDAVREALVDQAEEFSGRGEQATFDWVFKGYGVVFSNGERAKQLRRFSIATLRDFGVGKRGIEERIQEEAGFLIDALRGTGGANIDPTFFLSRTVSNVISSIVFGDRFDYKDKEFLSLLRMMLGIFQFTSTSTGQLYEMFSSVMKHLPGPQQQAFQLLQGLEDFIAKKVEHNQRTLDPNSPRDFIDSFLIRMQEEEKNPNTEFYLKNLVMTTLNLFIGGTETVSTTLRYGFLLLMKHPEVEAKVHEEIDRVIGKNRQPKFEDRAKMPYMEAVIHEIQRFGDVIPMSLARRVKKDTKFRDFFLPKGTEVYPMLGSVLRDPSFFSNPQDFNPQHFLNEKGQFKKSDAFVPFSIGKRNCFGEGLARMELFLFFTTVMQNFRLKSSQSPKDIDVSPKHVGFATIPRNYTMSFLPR

Cytochrome P450 2C9 = Cytochrome P450 2C9 (Homo sapiens, UniProt P11712); test: Inhibition of CYP2C9 in human liver microsomes using tolbutamide as substrate preincubated for 5 mins followed by NADPH addition by LC-MS/MS analysis; assay type: ADME
Chain of Cytochrome P450 2C9 (P11712 whole entry): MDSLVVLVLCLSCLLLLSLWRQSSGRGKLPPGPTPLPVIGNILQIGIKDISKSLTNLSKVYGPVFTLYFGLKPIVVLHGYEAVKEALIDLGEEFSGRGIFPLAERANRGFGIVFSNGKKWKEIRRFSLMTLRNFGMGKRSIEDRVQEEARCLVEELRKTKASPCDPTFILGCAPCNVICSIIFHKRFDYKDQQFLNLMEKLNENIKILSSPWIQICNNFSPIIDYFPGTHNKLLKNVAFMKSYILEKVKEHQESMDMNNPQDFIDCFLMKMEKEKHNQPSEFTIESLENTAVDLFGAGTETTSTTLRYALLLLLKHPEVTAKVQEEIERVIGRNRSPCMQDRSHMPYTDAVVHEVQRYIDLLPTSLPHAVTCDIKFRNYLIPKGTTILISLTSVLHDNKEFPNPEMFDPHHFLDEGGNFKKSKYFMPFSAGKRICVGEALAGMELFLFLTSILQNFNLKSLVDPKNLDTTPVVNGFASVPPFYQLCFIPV

Cytochrome P450 2D6 = Cytochrome P450 2D6 (Homo sapiens, UniProt P10635); test: Inhibition of CYP2D6 in human liver microsomes using dextromethorphan as substrate preincubated for 5 mins followed by NADPH addition by LC-MS/MS analysis; assay type: ADME
Chain of Cytochrome P450 2D6 (P10635 whole entry): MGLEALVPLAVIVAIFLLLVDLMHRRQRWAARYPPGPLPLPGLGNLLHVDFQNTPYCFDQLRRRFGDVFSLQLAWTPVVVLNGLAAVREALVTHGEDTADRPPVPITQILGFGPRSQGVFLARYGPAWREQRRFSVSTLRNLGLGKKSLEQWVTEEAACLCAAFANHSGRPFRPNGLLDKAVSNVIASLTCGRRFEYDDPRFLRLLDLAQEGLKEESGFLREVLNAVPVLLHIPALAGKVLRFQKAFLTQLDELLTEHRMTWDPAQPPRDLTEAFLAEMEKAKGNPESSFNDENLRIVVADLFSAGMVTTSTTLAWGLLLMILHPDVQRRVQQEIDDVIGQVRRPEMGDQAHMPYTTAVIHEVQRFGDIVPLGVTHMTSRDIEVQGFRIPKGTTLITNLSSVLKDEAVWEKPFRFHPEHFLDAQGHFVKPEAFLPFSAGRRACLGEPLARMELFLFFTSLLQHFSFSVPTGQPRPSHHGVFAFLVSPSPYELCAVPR

Cytochrome P450 2E1 = Cytochrome P450 2E1 (Homo sapiens, UniProt P05181); test: Inhibition of CYP2E1 in human liver microsomes using chlorzoxazone as substrate preincubated for 5 mins followed by NADPH addition by LC-MS/MS analysis; assay type: ADME
Chain of Cytochrome P450 2E1 (P05181 whole entry): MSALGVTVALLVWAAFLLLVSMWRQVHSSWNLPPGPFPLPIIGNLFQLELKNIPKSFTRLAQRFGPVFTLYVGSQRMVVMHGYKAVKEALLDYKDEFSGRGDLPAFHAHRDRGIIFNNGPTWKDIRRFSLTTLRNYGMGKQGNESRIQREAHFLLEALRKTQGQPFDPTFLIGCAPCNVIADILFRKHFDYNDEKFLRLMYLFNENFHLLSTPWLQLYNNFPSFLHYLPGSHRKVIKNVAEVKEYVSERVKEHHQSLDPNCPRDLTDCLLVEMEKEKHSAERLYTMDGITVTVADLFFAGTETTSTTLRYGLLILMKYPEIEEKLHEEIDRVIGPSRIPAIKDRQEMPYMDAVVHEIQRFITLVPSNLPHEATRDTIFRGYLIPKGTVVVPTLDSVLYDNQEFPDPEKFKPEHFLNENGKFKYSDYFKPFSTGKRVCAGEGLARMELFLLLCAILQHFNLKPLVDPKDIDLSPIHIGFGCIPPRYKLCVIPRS

[5] = Half life in CD-1 mouse plasma at 3 mg/kg, iv measured for 24 hrs by LC-MS/MS analysis; assay type: ADME, organism-based
[6] = Cmax in CD-1 mouse plasma at 8 mg/kg, po measured for 24 hrs by LC-MS/MS analysis; assay type: ADME, organism-based; set-up: route oral, dose 8 mg/kg, time 24 hrs
[7] = AUC (last) in CD-1 mouse liver at 8 mg/kg, po measured for 24 hrs by LC-MS/MS analysis; assay type: ADME, organism-based; set-up: route oral, time 24 hrs, dose 8 mg/kg
[8] = Oral bioavailability in CD-1 mouse plasma at 8 mg/kg measured for 24 hrs by LC-MS/MS analysis; assay type: ADME, organism-based
[9] = Drug concentration in CD-1 mouse liver at 8 mg/kg, po measured after 30 mins by LC-MS/MS analysis; assay type: ADME, organism-based; settings: read-out: Ct
[10] = Drug concentration in CD-1 mouse liver at 8 mg/kg, po measured after 1 hr by LC-MS/MS analysis; assay type: ADME, organism-based; settings: read-out: Ct
[11] = Drug concentration in CD-1 mouse liver at 8 mg/kg, po measured after 2 hrs by LC-MS/MS analysis; assay type: ADME, organism-based; settings: read-out: Ct
[12] = Drug concentration in CD-1 mouse liver at 8 mg/kg, po measured after 6 hrs by LC-MS/MS analysis; assay type: ADME, organism-based; settings: read-out: Ct
[13] = target: T3, Solute carrier organic anion transporter family member 1B1 (Homo sapiens, UniProt Q9Y6L6); test: Substrate activity at OATP1B1 (unknown origin) expressed in HEK293 cells assessed as ratio of drug uptake in absence of transporter inhibitor,estradiol-17beta-glucuronide to drug uptake in presence of transporter inhibitor, estradiol-17beta-glucuronide by LC-MS/MS analysis; assay type: ADME, cell-based
T3 sequence (Q9Y6L6 whole entry): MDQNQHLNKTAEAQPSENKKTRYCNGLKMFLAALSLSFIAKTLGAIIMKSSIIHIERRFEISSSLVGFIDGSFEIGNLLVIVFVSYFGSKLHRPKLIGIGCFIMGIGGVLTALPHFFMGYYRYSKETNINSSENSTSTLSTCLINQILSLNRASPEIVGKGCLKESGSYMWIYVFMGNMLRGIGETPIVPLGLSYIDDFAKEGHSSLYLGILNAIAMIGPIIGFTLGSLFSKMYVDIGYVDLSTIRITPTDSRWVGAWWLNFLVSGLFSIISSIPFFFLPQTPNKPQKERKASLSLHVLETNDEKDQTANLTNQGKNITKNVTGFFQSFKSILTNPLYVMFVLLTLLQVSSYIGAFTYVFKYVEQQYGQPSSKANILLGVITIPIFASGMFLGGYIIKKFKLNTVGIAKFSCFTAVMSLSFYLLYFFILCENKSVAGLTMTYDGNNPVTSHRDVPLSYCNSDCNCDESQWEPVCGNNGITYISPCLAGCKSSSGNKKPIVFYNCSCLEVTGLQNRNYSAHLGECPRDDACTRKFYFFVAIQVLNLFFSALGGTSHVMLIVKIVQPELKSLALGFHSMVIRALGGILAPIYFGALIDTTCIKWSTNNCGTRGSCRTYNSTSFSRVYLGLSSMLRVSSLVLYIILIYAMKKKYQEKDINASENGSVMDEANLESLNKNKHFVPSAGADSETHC

- pEC50 (Hepatitis B virus [1]): 7.64
- logD at 1 h [2]: -0.65
- Papp A→B at 1 h, 10 µM [4]: 0.39 ×10⁻⁶ cm/s
- pIC50 (Cytochrome P450 1A2): < 5.00
- pIC50 (Cytochrome P450 2A6): < 5.00
- pIC50 (Cytochrome P450 2C9): < 5.00
- pIC50 (Cytochrome P450 2D6): < 5.00
- pIC50 (Cytochrome P450 2E1): < 5.00
- half-life [5]: 1.48 h
- Cmax [6]: 16.1 ng/mL
- AUC(0-t) at 24 h [7]: 1310 ng·h/mL
- bioavailability [8]: 5.1%
- concentration at 0.5 h [9]: 309 ng/mL and 680 nM
- concentration at 1 h [10]: 300 ng/mL and 660 nM
- concentration at 2 h [11]: 261 ng/mL and 570 nM
- concentration at 6 h [12]: 76 ng/mL and 170 nM
- Ratio [13]: 11.17
SMILES: COc1cc2c(cc1OCCCCCCC(=O)O)C[C@@H](C(C)C)n1cc(C(=O)O)c(=O)cc1-2
- Activity (Hepatitis B virus [3]): Active
